Test results published in PMC10349806 (Nature Communications, 2023).
Where “and” joins values, the source holds several entries; their conditions need not be identical. Equal entries are not always repeated. Where two headings read alike, the source gives them in different places.

Assays:
PfCRT variant E232A = biological target: T1, PfCRT variant E232A (Plasmodium falciparum, UniProt Q9N623, A220S/E232A/I356T/K76T/M74I/N326S/N75E/Q271E/R371I); assay: CQ uptake assay, oocytes expressing E232A; format: cell-based
T1 sequence (Q9N623 1-424 M74I/N75E/K76T/A220S/E232A/Q271E/N326S/I356T/R371I): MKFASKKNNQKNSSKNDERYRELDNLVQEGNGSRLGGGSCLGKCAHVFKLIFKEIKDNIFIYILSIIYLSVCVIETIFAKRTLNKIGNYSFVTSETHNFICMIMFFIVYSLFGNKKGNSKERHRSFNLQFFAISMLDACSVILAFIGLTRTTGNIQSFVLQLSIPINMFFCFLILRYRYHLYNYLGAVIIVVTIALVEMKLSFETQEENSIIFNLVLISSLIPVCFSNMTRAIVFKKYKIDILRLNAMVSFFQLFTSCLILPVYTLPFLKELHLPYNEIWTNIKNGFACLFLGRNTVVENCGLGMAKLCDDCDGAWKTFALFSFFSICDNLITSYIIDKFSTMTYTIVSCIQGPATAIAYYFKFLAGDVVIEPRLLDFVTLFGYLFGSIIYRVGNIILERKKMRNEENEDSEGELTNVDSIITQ
Protocol: (§1) Site-directed mutagenesis of PfCRT^Dd2 was performed as described using the megaprimer method with overlap extension[21],[54]. The primer pairs used are listed in Supplementary Table 6. Please note that a codon-optimized and oocyte-adapted version of PfCRT^Dd2 was used[22] (Supplementary Fig. 16). The resulting DNA fragment was cloned into the SP64T expression vector and verified by sequencing.
(§2) Oocytes were obtained as described previously. Briefly, adult (>2 years old) female X. laevis frogs (NASCO) were anesthetized in a cooled solution of ethyl 3-amino benzoate methanesulfonate (0.1%, w/v), followed by a surgical removal of parts of the ovary. The ovary lobes were carefully dissected and small pieces of oocytes were incubated in Ca^2+-free ND96 buffer (96 mM NaCl, 2 mM KCl, 1 mM MgCl2 buffered with 5 mM HEPES/NaOH, pH 7.5) supplemented with collagenase D (0.1%, w/v; Roche), BSA (0.5%, w/v), and 9 mm Na2HPO4 at 18 °C for 14-16 h while gentle shaking. After incubation, the oocytes were carefully washed several times with ND96 buffer (96 mM NaCl, 2 mM KCl, 1.8 mM CaCl2, 1 mM MgCl2 buffered with 5 mM HEPES/NaOH, pH 7.5) supplemented with 100 mg l^−1 gentamycin). Defolliculated and healthy-looking stage V-VI oocytes were manually selected for RNA microinjection. The RNA was generated as following: The codon-optimized sequences of PfCRT variants were cloned into the pSP64T expression vector. After vector linearization using the restriction endonucleases BamHI or SalI (New England Biolabs), transcription was performed using the in vitro SP6 mMessage mMachine Kit (Ambion)[34]. The obtained RNA was kept at −80 °C and diluted with nuclease-free water to a concentration of 0.6 μg μl^−1. Precision-bore glass capillary tubes (3.5-inch glass capillaries; Drummond Scientific Co.) were pulled on a vertical puller (P-87 Flaming/Brown micropipette puller, Sutter Instrument Co.), graduated, and placed on a microinjector (Nanoject II Auto-Nanoliter Injector, Drummond Scientific Co.). 50 nl of nuclease-free water alone (control oocytes) or 50 nl of 0.6 μg μl^−1 RNA were injected under stereomicroscopic control. Injected oocytes were incubated for 46–72 h at 18 °C with twice-daily buffer changes before usage in experiments.
Drug uptake assays were performed as described previously[21],[22],[24],[34]. […] The direction of radio-labeled drug transport is here from the mostly acidic extracellular solution (pH 4.5 or 6.0, as indicated) into the oocyte cytosol (pH ∼ 7.2), which corresponds to the efflux of drug from the acidic digestive vacuole (pH 5.2) into the parasite cytoplasm (pH 7.2). The topology of PfCRT in the oolemma is such that both the N- and C-terminus face the extracellular milieu[3],[22]. In the parasite, the N- and C-terminus face the lumen of the digestive vacuole. […] For determination of the amount of drug uptake for each oocyte, the reaction medium was removed and the oocytes were washed three times with 2 ml of ice-cold ND96 buffer. Each oocyte was individually transferred to a scintillation vial containing 5% sodium dodecyl sulfate (200 μl) for lysis. […] Oocytes that were injected with water instead of RNA were analyzed in parallel, representing the uptake of a drug by diffusion and/or endogenous permeation pathways. […] The specific PfCRT-mediated uptake was determined by subtracting the corresponding background value measured in water-injected oocytes from that of PfCRT-expressing oocytes. […]

PfCRT variant E207H = assay: CQ uptake assay, oocytes expressing E207H; format: cell-based, Plasmodium falciparum; conditions: for Km: read-out: KM ± SEM
Protocol: as §1, §2
Drug uptake assays were performed as described previously[21],[22],[24],[34]. […] The direction of radio-labeled drug transport is here from the mostly acidic extracellular solution (pH 4.5 or 6.0, as indicated) into the oocyte cytosol (pH ∼ 7.2), which corresponds to the efflux of drug from the acidic digestive vacuole (pH 5.2) into the parasite cytoplasm (pH 7.2). The topology of PfCRT in the oolemma is such that both the N- and C-terminus face the extracellular milieu[3],[22]. In the parasite, the N- and C-terminus face the lumen of the digestive vacuole. […] For determination of the amount of drug uptake for each oocyte, the reaction medium was removed and the oocytes were washed three times with 2 ml of ice-cold ND96 buffer. Each oocyte was individually transferred to a scintillation vial containing 5% sodium dodecyl sulfate (200 μl) for lysis. […] Oocytes that were injected with water instead of RNA were analyzed in parallel, representing the uptake of a drug by diffusion and/or endogenous permeation pathways. The resulting value represents the “background“ level of drug accumulation in oocytes (in-depth discussion in[22]). The specific PfCRT-mediated uptake was determined by subtracting the corresponding background value measured in water-injected oocytes from that of PfCRT-expressing oocytes. In all cases, at least three separate experiments were performed on oocytes from different frogs (biological replicate), and for each condition in an experiment, measurements were made from 10 oocytes per treatment. For pH 5.5, 6.0, and 6.5, ND96 was buffered with 5 mM MES/Tris base.

PfCRT^Dd2 = PfCRT^Dd2 (Plasmodium falciparum, UniProt Q9N623, A220S/I356T/K76T/M74I/N326S/N75E/Q271E/R371I); conditions: cited from earlier work
[1] = E207H, 50 µM CQ, 1 h, mean ± SEM

PfCRT^Dd2, sequence (Q9N623 whole entry A220S/I356T/K76T/M74I/N326S/N75E/Q271E/R371I): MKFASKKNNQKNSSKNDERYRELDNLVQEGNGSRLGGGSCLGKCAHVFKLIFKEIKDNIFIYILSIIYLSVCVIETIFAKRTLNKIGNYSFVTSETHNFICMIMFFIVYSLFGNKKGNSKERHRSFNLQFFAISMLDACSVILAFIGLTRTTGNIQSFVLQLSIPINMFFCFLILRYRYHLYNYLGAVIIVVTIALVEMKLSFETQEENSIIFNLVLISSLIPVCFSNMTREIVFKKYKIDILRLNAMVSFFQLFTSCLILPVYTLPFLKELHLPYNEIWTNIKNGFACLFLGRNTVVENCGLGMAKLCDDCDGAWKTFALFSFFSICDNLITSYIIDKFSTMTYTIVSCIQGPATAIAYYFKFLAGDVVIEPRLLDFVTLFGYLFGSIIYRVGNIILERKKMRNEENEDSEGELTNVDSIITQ

SMILES: CCN(CC)CCCC(C)Nc1ccnc2cc(Cl)ccc12 (stereo not shown) [CQ, chloroquine]
- Activity at pH 4.5 (PfCRT variant E232A; E232A, 50 µM CQ, 1 h, mean ± SEM): 1.07 ± 0.12 pmol h-1 oocyte-1
- R-value (PfCRT variant E232A; E232A, CQ transport at pH 4.5 / pH 6.0): 0.65 ± 0.06
- E232A transport activity pH 4.5 (PfCRT variant E232A; pH 4.5, single replicates, Fig 1d left): 1.05 pmol oocyte-1 h-1 and 1.32 pmol oocyte-1 h-1 and 1.01 pmol oocyte-1 h-1 and 0.62 pmol oocyte-1 h-1 and 1.37 pmol oocyte-1 h-1
- E232A R-value (PfCRT variant E232A; pH 4.5 vs pH 6.0, Fig 1d left): 0.65 and 0.81 and 0.48 and 0.80
- E232A transport activity pH 6.0 (PfCRT variant E232A; pH 6.0, single replicates, Fig 1d left): 1.62 pmol oocyte-1 h-1 and 1.63 pmol oocyte-1 h-1 and 2.09 pmol oocyte-1 h-1 and 1.28 pmol oocyte-1 h-1 and 1.71 pmol oocyte-1 h-1
- E207H transport activity (PfCRT variant E207H; 10 μM CQ, pH 4.5): 0.41 pmol oocyte-1 h-1 and 0.39 pmol oocyte-1 h-1 and 0.48 pmol oocyte-1 h-1
- E207H transport activity (PfCRT variant E207H; 10 μM CQ, pH 6.0): 0.74 pmol oocyte-1 h-1 and 0.57 pmol oocyte-1 h-1 and 1.12 pmol oocyte-1 h-1 and 0.76 pmol oocyte-1 h-1
- E207H transport activity (PfCRT variant E207H; 50 μM CQ, pH 4.5): 2.07 pmol oocyte-1 h-1 and 1.95 pmol oocyte-1 h-1 and 1.52 pmol oocyte-1 h-1
- E207H transport activity (PfCRT variant E207H; 50 μM CQ, pH 6.0): 4.71 pmol oocyte-1 h-1 and 5.16 pmol oocyte-1 h-1 and 4.70 pmol oocyte-1 h-1 and 3.98 pmol oocyte-1 h-1
- E207H transport activity (PfCRT variant E207H; 100 μM CQ, pH 4.5): 4.26 pmol oocyte-1 h-1 and 4.32 pmol oocyte-1 h-1 and 4.33 pmol oocyte-1 h-1 and 5.17 pmol oocyte-1 h-1
- E207H transport activity (PfCRT variant E207H; 100 μM CQ, pH 6.0): 8.51 pmol oocyte-1 h-1 and 8.56 pmol oocyte-1 h-1 and 9.98 pmol oocyte-1 h-1 and 9.68 pmol oocyte-1 h-1
- E207H transport activity (PfCRT variant E207H; 200 μM CQ, pH 4.5): 6.09 pmol oocyte-1 h-1 and 7.31 pmol oocyte-1 h-1 and 7.21 pmol oocyte-1 h-1
- E207H transport activity (PfCRT variant E207H; 200 μM CQ, pH 6.0): 12.59 pmol oocyte-1 h-1 and 12.95 pmol oocyte-1 h-1 and 14.47 pmol oocyte-1 h-1 and 12.58 pmol oocyte-1 h-1
- E207H transport activity (PfCRT variant E207H; 300 μM CQ, pH 4.5): 7.95 pmol oocyte-1 h-1 and 7.89 pmol oocyte-1 h-1 and 7.92 pmol oocyte-1 h-1 and 8.79 pmol oocyte-1 h-1
- E207H transport activity (PfCRT variant E207H; 300 μM CQ, pH 6.0): 15.93 pmol oocyte-1 h-1 and 18.38 pmol oocyte-1 h-1 and 15.91 pmol oocyte-1 h-1 and 15.89 pmol oocyte-1 h-1
- E207H transport activity (PfCRT variant E207H; 400 μM CQ, pH 4.5): 8.22 pmol oocyte-1 h-1 and 9.32 pmol oocyte-1 h-1 and 10.99 pmol oocyte-1 h-1 and 9.19 pmol oocyte-1 h-1
- E207H transport activity (PfCRT variant E207H; 400 μM CQ, pH 6.0): 18.75 pmol oocyte-1 h-1 and 17.55 pmol oocyte-1 h-1 and 18.62 pmol oocyte-1 h-1
- E207H transport activity (PfCRT variant E207H; 500 μM CQ, pH 4.5): 8.40 pmol oocyte-1 h-1 and 9.28 pmol oocyte-1 h-1 and 9.33 pmol oocyte-1 h-1 and 9.38 pmol oocyte-1 h-1
- E207H transport activity (PfCRT variant E207H; 500 μM CQ, pH 6.0): 19.42 pmol oocyte-1 h-1 and 18.73 pmol oocyte-1 h-1 and 21.15 pmol oocyte-1 h-1 and 18.43 pmol oocyte-1 h-1
- E207H transport activity pH 4.5 (PfCRT variant E207H; CQ uptake, oocytes expressing E207H, pH 4.5, individual replicates (Fig 6c)): 2.07 pmol oocyte-1 h-1 and 1.95 pmol oocyte-1 h-1 and 1.52 pmol oocyte-1 h-1
- E207H transport activity pH 5.0 (PfCRT variant E207H; CQ uptake, oocytes expressing E207H, pH 5.0, individual replicates (Fig 6c)): 2.16 pmol oocyte-1 h-1 and 3.19 pmol oocyte-1 h-1 and 2.08 pmol oocyte-1 h-1 and 1.56 pmol oocyte-1 h-1
- E207H transport activity pH 5.5 (PfCRT variant E207H; CQ uptake, oocytes expressing E207H, pH 5.5, individual replicates (Fig 6c)): 2.52 pmol oocyte-1 h-1 and 2.31 pmol oocyte-1 h-1 and 4.16 pmol oocyte-1 h-1 and 3.55 pmol oocyte-1 h-1
- E207H transport activity pH 6.0 (PfCRT variant E207H; CQ uptake, oocytes expressing E207H, pH 6.0, individual replicates (Fig 6c)): 4.71 pmol oocyte-1 h-1 and 5.16 pmol oocyte-1 h-1 and 4.70 pmol oocyte-1 h-1 and 3.98 pmol oocyte-1 h-1
- E207H transport activity pH 6.5 (PfCRT variant E207H; CQ uptake, oocytes expressing E207H, pH 6.5, individual replicates (Fig 6c)): 3.76 pmol oocyte-1 h-1 and 4.49 pmol oocyte-1 h-1 and 4.51 pmol oocyte-1 h-1 and 2.60 pmol oocyte-1 h-1
- E207H transport activity pH 7.0 (PfCRT variant E207H; CQ uptake, oocytes expressing E207H, pH 7.0, individual replicates (Fig 6c)): 2.49 pmol oocyte-1 h-1 and 3.47 pmol oocyte-1 h-1 and 3.41 pmol oocyte-1 h-1 and 2.67 pmol oocyte-1 h-1
- Vmax ± SEM (PfCRT variant E207H; E207H, pH 4.5): 13 ± 1 pmol h^−1 oocyte ^−1
- Km (PfCRT variant E207H; E207H, pH 4.5): 230 ± 35 µM
- Vmax ± SEM (PfCRT variant E207H; E207H, pH 6.0): 29 ± 1 pmol h^−1 oocyte ^−1
- Km (PfCRT variant E207H; E207H, pH 6.0): 230 ± 20 µM
- Activity at pH 4.5 (PfCRT variant E207H; [1]): 1.99 ± 0.16 pmol h-1 oocyte-1
- Activity at pH 6.0 (PfCRT variant E207H; [1]): 4.64 ± 0.21 pmol h-1 oocyte-1
- R-value (PfCRT variant E207H; E207H, CQ transport at pH 4.5 / pH 6.0): 0.43 ± 0.03
- E207H transport activity pH 4.5 (PfCRT variant E207H; pH 4.5, individual replicates, Fig 6b): 2.07 pmol oocyte-1 h-1 and 1.95 pmol oocyte-1 h-1 and 1.52 pmol oocyte-1 h-1
- E207H transport activity pH 6.0 (PfCRT variant E207H; pH 6.0, individual replicates, Fig 6b): 4.71 pmol oocyte-1 h-1 and 5.16 pmol oocyte-1 h-1 and 4.70 pmol oocyte-1 h-1 and 3.98 pmol oocyte-1 h-1
- E207H R-value (PfCRT variant E207H; ratio of activity pH 4.5 / pH 6.0): 0.51 and 0.40 and 0.41 and 0.38
- share of full transport velocity (PfCRT^Dd2; at the pH of the digestive vacuole of 5.2): 60%
- pH of maximal CQ transport activity (PfCRT^Dd2): ~ 6.0 pH
